# Laboratory results published in ChEMBL document CHEMBL4000213, “New antiprotozoal agents: Synthesis and biological evaluation of different 4-(7-chloroquinolin-4-yl) piperazin-1-yl)pyrrolidin-2-yl)methanone derivatives” (Bioorg Med Chem Lett, 2017).
# Calls of active or inactive are those of the source. The rule behind the calls is not given here.
# Key:
# Entamoeba histolytica = assay: Anti-amoebic activity against trophozoites of Entamoeba histolytica HM-1:IMSS gassed with nitrogen for 10 mins measured after 72 hrs by eosin staining based micro dilution method; format: functional
# Plasmodium falciparum = assay: Antimalarial activity against chloroquine-sensitive Plasmodium falciparum NF54 infected in erythrocytes measured after 48 hrs by Malstat/nitroblue tetrazolium/phenazine ethosulphate reagent based LDH assay; format: functional, cell-based; conditions: NF54, 48 h
# HEK293 = assay: Cytotoxicity against HEK293 cells measured after 48 hrs by MTT assay; format: cell-based; conditions: Homo sapiens, HEK293, 48 h
# [1] = Selectivity index, ratio of IC50 for cytotoxicity against HEK293 cells to IC50 for anti-malarial activity against chloroquine-sensitive Plasmodium falciparum NF54 infected in erythrocytes; format: toxicity, cell-based; conditions: human; read-out: Ratio IC50
# [2] = Antioxidant activity assessed as inhibition of ferrous chloride-induced lipid peroxidation at 50 uM preincubated for 24 hrs followed by ferrous chloride addition relative to control; format: functional
# Anopheles arabiensis [3] = assay: Larvicidal activity against Anopheles arabiensis KGB at 0.5 uM measured after 24 hrs relative to control; format: functional
# Anopheles arabiensis [4] = assay: Larvicidal activity against Anopheles arabiensis KGB measured after 24 hrs; format: functional; conditions: read-out: LD50 (the source's name)
Structure (SMILES),IC50 (Entamoeba histolytica) [µM],IC50 (Plasmodium falciparum) [µM],IC50 (HEK293) [µM],selectivity ratio [1],inhibition [2] [%],Activity (Anopheles arabiensis [3]),LC50 (Anopheles arabiensis [4]) [µM]
O=C([C@H]1CCCN1S(=O)(=O)c1ccccc1)N1CCN(c2ccnc3cc(Cl)ccc23)CC1,1.26,5.33,64.1,12,< 1,inactive,
COc1ccc(S(=O)(=O)N2CCC[C@@H]2C(=O)N2CCN(c3ccnc4cc(Cl)ccc34)CC2)cc1,5.73,4.02,57.7,14.3,< 1,inactive,
CC(C)(C)c1ccc(S(=O)(=O)N2CCC[C@@H]2C(=O)N2CCN(c3ccnc4cc(Cl)ccc34)CC2)cc1,0.77,3.21,53.1,16.5,< 1,inactive,
Cc1cc(C)c(S(=O)(=O)N2CCC[C@@H]2C(=O)N2CCN(c3ccnc4cc(Cl)ccc34)CC2)c(C)c1,0.14,19.6,14.7,0.75,< 1,inactive,
O=C([C@H]1CCCN1S(=O)(=O)c1cc(Cl)ccc1Cl)N1CCN(c2ccnc3cc(Cl)ccc23)CC1,8.89,4.21,38,9.02,< 1,inactive,
O=C([C@H]1CCCN1S(=O)(=O)c1ccc(Cl)cc1)N1CCN(c2ccnc3cc(Cl)ccc23)CC1,0.31,6.33,46,7.27,< 1,inactive,
C=C[C@H]1CN2CC[C@H]1C[C@H]2[C@H](O)c1ccnc2ccc(OC)cc12 [QUININE],,0.18,276,1490,,,
CCCS(=O)(=O)N1CCC[C@@H]1C(=O)N1CCN(c2ccnc3cc(Cl)ccc23)CC1,6.91,,,,< 1,inactive,
Clc1ccc(C(c2ccc(Cl)cc2)C(Cl)(Cl)Cl)cc1 [CHLOROPHENOTHANE],,,,,,100%,0.5
CC[C@@]1(O)C(=O)OCc2c1cc1n(c2=O)Cc2cc3ccccc3nc2-1 [CAMPTOTHECIN],,,0.01,,,,
O=C([C@H]1CCCN1S(=O)(=O)c1ccc2ccccc2c1)N1CCN(c2ccnc3cc(Cl)ccc23)CC1,0.34,3.45,24.4,7.06,< 1,inactive,
Cc1ccc(S(=O)(=O)N2CCC[C@@H]2C(=O)N2CCN(c3ccnc4cc(Cl)ccc34)CC2)cc1,0.34,1.42,81.2,57.1,< 1,inactive,
Cc1c(C)c2c(c(C)c1O)CCC(C)(C(=O)O)O2 (stereo unspecified),,,,,74,,
O=C([C@H]1CCCN1S(=O)(=O)c1ccccc1[N+](=O)[O-])N1CCN(c2ccnc3cc(Cl)ccc23)CC1,2.08,4.08,57.7,14.2,< 1,inactive,
O=C(CN1CCN(c2ccnc3cc(Cl)ccc23)CC1)Nc1ccc(F)cc1,0.41,,,,,,
O=C(CN1CCN(c2ccnc3cc(Cl)ccc23)CC1)NC1CCCCC1,0.86,,,,,,
